# Measured values taken from patent US11208400B2, “Substituted 6-(1H-pyrazol-1-yl)pyrimidin-4-amine derivatives and uses thereof” (Bayer Aktiengesellschaft, priority 2016, dated 2021).
# Molecular target: T1, human Npt2a (Homo sapiens, UniProt Q06495)
# T1 construct: expressed in transfected cells
# T1 sequence (Q06495 1-639): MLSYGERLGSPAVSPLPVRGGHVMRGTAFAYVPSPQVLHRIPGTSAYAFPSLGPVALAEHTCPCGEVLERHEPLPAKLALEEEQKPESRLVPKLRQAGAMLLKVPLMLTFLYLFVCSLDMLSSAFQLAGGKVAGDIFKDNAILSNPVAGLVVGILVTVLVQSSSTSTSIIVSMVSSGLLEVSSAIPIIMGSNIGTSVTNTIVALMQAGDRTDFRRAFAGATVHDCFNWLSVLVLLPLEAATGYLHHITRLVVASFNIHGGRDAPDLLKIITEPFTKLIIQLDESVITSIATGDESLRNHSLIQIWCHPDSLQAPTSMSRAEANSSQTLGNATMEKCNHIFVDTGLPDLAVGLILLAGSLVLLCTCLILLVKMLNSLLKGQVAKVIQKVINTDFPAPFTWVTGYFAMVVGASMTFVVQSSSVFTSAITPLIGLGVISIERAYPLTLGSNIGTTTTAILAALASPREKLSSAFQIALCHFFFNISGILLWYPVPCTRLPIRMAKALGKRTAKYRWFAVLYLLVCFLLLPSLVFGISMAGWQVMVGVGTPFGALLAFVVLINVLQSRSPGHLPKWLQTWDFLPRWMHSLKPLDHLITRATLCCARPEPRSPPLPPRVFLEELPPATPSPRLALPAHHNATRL
# Assay: Npt2a activity cell based assay, membrane potential dye, CHO T-REx hNpt2a cells
# Conditions: doxycycline-induced, depolarization by sodium phosphate influx, average or median values if tested more than once
# Procedure, shortened: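 Cells were doxycycline-induced CHO T-REx hNpt2a, dye-loaded and pretreated 5 min at RT with 1 nM–50 μM compound in Na-free pH 7.4 buffer. IC50 was fit to the post/pre-trigger fluorescence ratio.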
row,SMILES,IC50 [nM]
1,"CNc1ccc(-c2nn(CC3CC3)c(Nc3cc(-n4nc(C)cc4C(F)F)ncn3)c2C)cc1 [Example 487, N-{1-(cyclopropylmethyl)-4-methyl-3-[4-(methylamino)phenyl]-1H-pyrazol-5-yl}-6-[5-(difluoromethyl)-3-methyl-1H-pyrazol-1-yl]pyrimidin-4-amine]",150
2,"CCc1c(Nc2cc(-n3nc(C)c(C(=O)N4CC(C)OC(C)C4)c3C)ncn2)nn(C)c1-c1ccc(F)cc1 (racemic) [Example 74, (±)-[syn-2,6-dimethylmorpholin-4-yl][1-(6-{[4-ethyl-5-(4-fluorophenyl)-1-methyl-1H-pyrazol-3-yl]amino}pyrimidin-4-yl)-3,5-dimethyl-1H-pyrazol-4-yl]methanone]",1260
3,"Cc1nn(-c2cc(Nc3nn(C)c(-c4ccc(F)cc4)c3C)ncn2)c(C(C)(C)O)c1Cl [Example 261, 2-[4-chloro-1-(6-{[5-(4-fluorophenyl)-1,4-dimethyl-1H-pyrazol-3-yl]amino}pyrimidin-4-yl)-3-methyl-1H-pyrazol-5-yl]propan-2-ol]",20
4,"Cc1nn(-c2cc(Nc3c(C)c(-c4ccc(F)cc4)nn3CC3CC3)ncn2)c(C)c1C(O)C1CC1 (single isomer, unassigned) [Example 419, cyclopropyl[1-(6-{[1-(cyclopropylmethyl)-3-(4-fluorophenyl)-4-methyl-1H-pyrazol-5-yl]amino}pyrimidin-4-yl)-3,5-dimethyl-1H-pyrazol-4-yl]methanol]",14
5,"COC(C)c1c(C)nn(-c2cc(Nc3c(C)c(-c4ccc(C#N)cc4)nn3C)ncn2)c1C (racemic) [Example 338, (±)-4-{5-[(6-{4-[1-methoxyethyl]-3,5-dimethyl-1H-pyrazol-1-yl}pyrimidin-4-yl)amino]-1,4-dimethyl-1H-pyrazol-3-yl}benzonitrile]",7
6,"Cc1cc(C(F)F)n(-c2cc(Nc3n[nH]c(-c4ccc(F)cc4)c3C)ncn2)n1 [Example 66, 6-[5-(difluoromethyl)-3-methyl-1H-pyrazol-1-yl]-N-[5-(4-fluorophenyl)-4-methyl-1H-pyrazol-3-yl]pyrimidin-4-amine]",87
7,"CCc1c(-c2ccc(F)cc2)nn(CC(F)F)c1Nc1cc(-n2nc(C)c(Cl)c2C)ncn1 [Example 163, 6-(4-chloro-3,5-dimethyl-1H-pyrazol-1-yl)-N-[1-(2,2-difluoroethyl)-4-ethyl-3-(4-fluorophenyl)-1H-pyrazol-5-yl]pyrimidin-4-amine]",71
8,"Cc1cc(C(F)F)n(-c2cc(Nc3c(C)c(-c4ccc(C(F)F)cc4)nn3C)ncn2)n1 [Example 408, 6-[5-(difluoromethyl)-3-methyl-1H-pyrazol-1-yl]-N-{3-[4-(difluoromethyl)phenyl]-1,4-dimethyl-1H-pyrazol-5-yl}pyrimidin-4-amine]",6
9,"CCOC(=O)c1c(C)nn(-c2cc(Nc3c(Cl)c(-c4ccc(F)cc4)nn3C)ncn2)c1C [Example 449, ethyl 1-(6-{[4-chloro-3-(4-fluorophenyl)-1-methyl-1H-pyrazol-5-yl]amino}pyrimidin-4-yl)-3,5-dimethyl-1H-pyrazole-4-carboxylate]",8
10,"CCc1c(Nc2cc(-n3nc(C)cc3C)ncn2)n[nH]c1-c1ccc(Cl)cc1 [Example 21, N-[5-(4-chlorophenyl)-4-ethyl-1H-pyrazol-3-yl]-6-(3,5-dimethyl-1H-pyrazol-1-yl)pyrimidin-4-amine]",140
11,"Cc1nn(-c2cc(Nc3n[nH]c(-c4ccc(F)cc4)c3C)ncn2)c(C)c1Cl [Example 72, 6-(4-chloro-3,5-dimethyl-1H-pyrazol-1-yl)-N-[5-(4-fluorophenyl)-4-methyl-1H-pyrazol-3-yl]pyrimidin-4-amine]",15.4
12,"CCc1c(Nc2cc(-n3nc(C)c(C(=O)N4CCCC4C)c3C)ncn2)nn(C)c1-c1ccc(F)cc1 (racemic) [Example 76, (±)-[1-(6-{[4-ethyl-5-(4-fluorophenyl)-1-methyl-1H-pyrazol-3-yl]amino}pyrimidin-4-yl)-3,5-dimethyl-1H-pyrazol-4-yl](2-methylpyrrolidin-1-yl)methanone]",190
13,"Cc1nn(-c2cc(Nc3nn(C)c(-c4ccc(F)cc4)c3C)ncn2)c(C)c1C(O)CC(C)C (stereo not drawn) [Example 456, 1-[1-(6-{[5-(4-fluorophenyl)-1,4-dimethyl-1H-pyrazol-3-yl]amino}pyrimidin-4-yl)-3,5-dimethyl-1H-pyrazol-4-yl]-3-methylbutan-1-ol]",41
14,"Cc1ccc(-c2nn(CC3CC3)c(Nc3cc(-n4nc(C)cc4C)ncn3)c2C)cn1 [Example 529, N-[1-(cyclopropylmethyl)-4-methyl-3-(6-methylpyridin-3-yl)-1H-pyrazol-5-yl]-6-(3,5-dimethyl-1H-pyrazol-1-yl)pyrimidin-4-amine]",2700
15,"Cc1c(-c2ccc(C#N)cc2)nn(CC2CC2)c1Nc1cc(-n2nc(C)c3cnccc32)ncn1 [Example 233, 4-[1-(cyclopropylmethyl)-4-methyl-5-{[6-(3-methyl-1H-pyrazolo[4,3-c]pyridin-1-yl)pyrimidin-4-yl]amino}-1H-pyrazol-3-yl]benzonitrile]",29
16,"Cc1cc(C)n(-c2cc(Nc3nn(C)c(-c4ccc(F)cc4)c3CN3CC(C(F)(F)F)C3)ncn2)n1 [Example 275, 6-(3,5-dimethyl-1H-pyrazol-1-yl)-N-[5-(4-fluorophenyl)-1-methyl-4-{[3-(trifluoromethyl)azetidin-1-yl]methyl}-1H-pyrazol-3-yl]pyrimidin-4-amine]",1050
17,"CCc1c(Nc2cc(-n3nc(C)c(C(C)(C)O)c3C)ncn2)nn(CC2CC2)c1-c1ccc(F)cc1 [Example 188, 2-[1-(6-{[1-(cyclopropylmethyl)-4-ethyl-5-(4-fluorophenyl)-1H-pyrazol-3-yl]amino}pyrimidin-4-yl)-3,5-dimethyl-1H-pyrazol-4-yl]propan-2-ol]",710
18,"CCc1c(-c2ccc(F)cc2)nn(C)c1Nc1cc(-n2nc(C)c(Cl)c2C)ncn1 [Example 97, 6-(4-chloro-3,5-dimethyl-1H-pyrazol-1-yl)-N-[4-ethyl-3-(4-fluorophenyl)-1-methyl-1H-pyrazol-5-yl]pyrimidin-4-amine]",75
19,"Cc1cc(C)n(-c2cc(Nc3n[nH]c(-c4ccc(F)cc4)c3C3CC3)ncn2)n1 [Example 7, N-[4-cyclopropyl-5-(4-fluorophenyl)-1H-pyrazol-3-yl]-6-(3,5-dimethyl-1H-pyrazol-1-yl)pyrimidin-4-amine]",36
20,"CCc1c(-c2ccc(C#N)cc2)nn(CC2CC2)c1Nc1cc(-n2nc(C)c3ccncc32)ncn1 [Example 203, 4-[1-(cyclopropylmethyl)-4-ethyl-5-{[6-(3-methyl-1H-pyrazolo[3,4-c]pyridin-1-yl)pyrimidin-4-yl]amino}-1H-pyrazol-3-yl]benzonitrile]",1400
21,"COc1c(-c2ccc(C#N)cc2)nn(CC2CC2)c1Nc1cc(-n2nc(C)c(C(C)OC)c2C)ncn1 (single isomer, unassigned) [Example 334, 4-{1-(cyclopropylmethyl)-4-methoxy-5-[(6-{4-[1-methoxyethyl]-3,5-dimethyl-1H-pyrazol-1-yl}pyrimidin-4-yl)amino]-1H-pyrazol-3-yl}benzonitrile]",41
22,"Cc1c(-c2ccc(F)cc2)nn(CC2CC2)c1Nc1cc(-n2nc3c(c2C)C(C)(O)CC3)ncn1 (single isomer, unassigned) [Example 515, 2-(6-{[1-(cyclopropylmethyl)-3-(4-fluorophenyl)-4-methyl-1H-pyrazol-5-yl]amino}pyrimidin-4-yl)-3,4-dimethyl-2,4,5,6-tetrahydrocyclopenta[c]pyrazol-4-ol]",110
23,"CCc1c(Nc2cc(-n3nc(C)c4cnccc43)ncn2)nn(C)c1-c1ccc(F)cc1 [Example 224, N-[4-ethyl-5-(4-fluorophenyl)-1-methyl-1H-pyrazol-3-yl]-6-(3-methyl-1H-pyrazolo[4,3-c]pyridin-1-yl)pyrimidin-4-amine]",47
24,"Cc1nn(-c2cc(Nc3nn(C)c(-c4ccc(F)cc4)c3C)ncn2)c(C)c1C(F)(F)F [Example 383, 6-[3,5-dimethyl-4-(trifluoromethyl)-1H-pyrazol-1-yl]-N-[5-(4-fluorophenyl)-1,4-dimethyl-1H-pyrazol-3-yl]pyrimidin-4-amine]",5
25,"COc1ccc(-c2nn(CC3CC3)c(Nc3cc(-n4nc(C)cc4C(F)F)ncn3)c2C)cc1 [Example 489, N-[1-(cyclopropylmethyl)-3-(4-methoxyphenyl)-4-methyl-1H-pyrazol-5-yl]-6-[5-(difluoromethyl)-3-methyl-1H-pyrazol-1-yl]pyrimidin-4-amine]",270
26,"COc1ccc(-c2nn(CC3CC3)c(Nc3cc(-n4nc(C)c(Cl)c4C)ncn3)c2C)cc1 [Example 482, 6-(4-chloro-3,5-dimethyl-1H-pyrazol-1-yl)-N-[1-(cyclopropylmethyl)-3-(4-methoxyphenyl)-4-methyl-1H-pyrazol-5-yl]pyrimidin-4-amine]",52
27,"Cc1nn(-c2cc(Nc3c(C)c(-c4ccc(C#N)cc4)nn3CC3CC3)ncn2)c2c1C(=O)CC2 [Example 365, 4-[1-(cyclopropylmethyl)-4-methyl-5-{[6-(3-methyl-4-oxo-5,6-dihydrocyclopenta[c]pyrazol-1(4H)-yl)pyrimidin-4-yl]amino}-1H-pyrazol-3-yl]benzonitrile]",61
